Laboratory results as given in patent US20020137929A1, “1 - (3-heterocyclylphenyl) isothiourea, -isourea, -guanidine and -amidine herbicidal agents” (Intellectual Property Department, BASF Aktiengesellschaft, priority 1998, published 2002).

Assays:
CASOB (Sicklepod) = test: Postemergence herbicidal evaluation; format: in vivo, Cassia obtusifolia; conditions: for CASOB herbicidal rating: postemergence
How it was run: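 Young plants, roughly two weeks from seeding, receive the active ingredient as a sprayed dispersion (acetone/water 50/50, 0.5% TWEEN 20) at 40 psi. Doses span about 0.0156 to 0.500 kg/ha. A visual score from 0 to 9 compares treated with control plants four to five weeks on.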

[1] = tested on: GLXMAW (Soybean, Williams); test: Preemergence herbicidal evaluation; format: in vivo, Glycine max, (L.) Merr. cv Williams; conditions: rated 4-5 weeks after treatment
How it was run: (§1)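 Rating at 4–5 wk post-spray on a 0–9 visual scale vs control. Application: aqueous acetone, ~0.0156–0.500 kg/ha, to soil surface after seeding, preemergence.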

ORYSAT (Rice, Tebonnet) = test: Preemergence herbicidal evaluation; format: in vivo, Oryza sativa, (L.) Tebonnet; conditions: rated 4-5 weeks after treatment
How it was run: as §1

[2] = tested on: SAGPY (Arrowhead (Pygmaea)); test: Preemergence weed control under flooded paddy conditions; format: in vivo, Sagittaria pygmaea; conditions: rated 3-4 weeks after treatment
How it was run: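 Values are visual 0-9 scores against a control for a preemergence application into paddy flood water at about 0.0313 to 0.500 kg/ha. Greenhouse duration was three to four weeks.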

MOOVA (Monochoria) = test: Postemergence weed control under flooded paddy conditions; format: in vivo, Monochoria vaginalis; conditions: postemergence weeds, 3-4 weeks after treatment
How it was run: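 With weeds 3 to 5 cm tall and rice at the 1.5 to 2.5 leaf stage, containers were flooded and water held 1.5 to 3 cm above soil. Compounds in 50/50 v/v aqueous/acetone went into the flood water at about 0.0313 to 0.500 kg/ha a.i. Effects were visually rated 0–9 against controls after three to four weeks in the greenhouse.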

[3] = tested on: TRZAWR (Wheat, Winter, cv Riband); test: Preemergence herbicidal evaluation; format: in vivo, Triticum aestivum; conditions: rated 4-5 weeks after treatment
How it was run: as §1

Compound: CCOC(=O)CN1C(=O)CSC1=Nc1cc(-n2c(=O)cc(C(F)(F)F)n(C)c2=O)c(F)cc1Cl [Compound 8, Ethyl 2-{{2-chloro-5-[3,6-dihydro-3-methyl-2,6-dioxo-4-(trifluoromethyl)-1(2H)pyrimidinyl]-4-fluorophenyl}imino}-4-oxo-3-thiazolidineacetate]
- CASOB herbicidal rating (CASOB (Sicklepod); rate 0.0157 kg/ha): 0.0
- CASOB herbicidal rating (CASOB (Sicklepod); rate 0.0313 kg/ha): 1.8
- CASOB herbicidal rating (CASOB (Sicklepod); rate 0.0625 kg/ha): 3.0
- CASOB herbicidal rating (CASOB (Sicklepod); rate 0.1250 kg/ha): 3.0
- GLXMAW preemergence herbicidal rating ([1]; rate 0.0156 kg/ha): 0.2
- GLXMAW preemergence herbicidal rating ([1]; rate 0.0313 kg/ha): 1.1
- GLXMAW preemergence herbicidal rating ([1]; rate 0.0625 kg/ha): 3.2
- GLXMAW preemergence herbicidal rating ([1]; rate 0.1250 kg/ha): 5.9
- GLXMAW preemergence herbicidal rating ([1]; rate 0.2500 kg/ha): 7.9
- GLXMAW preemergence herbicidal rating ([1]; rate 0.5000 kg/ha): 8.8
- ORYSAT preemergence herbicidal rating (ORYSAT (Rice, Tebonnet); rate 0.0156 kg/ha): 0.6
- ORYSAT preemergence herbicidal rating (ORYSAT (Rice, Tebonnet); rate 0.0313 kg/ha): 0.8
- ORYSAT preemergence herbicidal rating (ORYSAT (Rice, Tebonnet); rate 0.0625 kg/ha): 2.8
- ORYSAT preemergence herbicidal rating (ORYSAT (Rice, Tebonnet); rate 0.1250 kg/ha): 5.4
- ORYSAT preemergence herbicidal rating (ORYSAT (Rice, Tebonnet); rate 0.2500 kg/ha): 7.1
- ORYSAT preemergence herbicidal rating (ORYSAT (Rice, Tebonnet); rate 0.5000 kg/ha): 8.5
- Herbicidal rating SAGPY ([2]; 0.0313 kg/ha): 0.0
- Herbicidal rating SAGPY ([2]; 0.0625 kg/ha): 0.0
- Herbicidal rating SAGPY ([2]; 0.1250 kg/ha): 0.0
- Herbicidal rating SAGPY ([2]; 0.2500 kg/ha): 0.0
- Herbicidal rating MOOVA (MOOVA (Monochoria); rate 0.0313 kg/ha): 9.0
- Herbicidal rating MOOVA (MOOVA (Monochoria); rate 0.0625 kg/ha): 9.0
- Herbicidal rating MOOVA (MOOVA (Monochoria); rate 0.1250 kg/ha): 9.0
- Herbicidal rating MOOVA (MOOVA (Monochoria); rate 0.2500 kg/ha): 9.0
- TRZAWR preemergence herbicidal rating ([3]; rate 0.0156 kg/ha): 0.2
- TRZAWR preemergence herbicidal rating ([3]; rate 0.0313 kg/ha): 0.8
- TRZAWR preemergence herbicidal rating ([3]; rate 0.0625 kg/ha): 2.8
- TRZAWR preemergence herbicidal rating ([3]; rate 0.1250 kg/ha): 5.5
- TRZAWR preemergence herbicidal rating ([3]; rate 0.2500 kg/ha): 7.2
- TRZAWR preemergence herbicidal rating ([3]; rate 0.5000 kg/ha): 7.8

Compound: Cn1c(C(F)(F)F)cc(=O)n(-c2cc(N=C3NC(=O)CS3)c(Cl)cc2F)c1=O [Compound 39, 3-{4-Chloro-2-fluoro-5-[(4-oxo-2-thiazolidinylidene)amino]phenyl}-1-methyl-6-(trifluoromethyl)-2,4(1H,3H)-pyrimidinedione]
- Postemergence herbicidal rating CASOB (CASOB (Sicklepod); Rate 0.0158 kg/ha): 0.0
- Postemergence herbicidal rating CASOB (CASOB (Sicklepod); Rate 0.0315 kg/ha): 0.0
- Postemergence herbicidal rating CASOB (CASOB (Sicklepod); Rate 0.0630 kg/ha): 0.0
- Preemergence herbicidal rating GLXMAW ([1]; rate 0.0156 kg/ha): 0.0
- Preemergence herbicidal rating GLXMAW ([1]; rate 0.0313 kg/ha): 0.0
- Preemergence herbicidal rating GLXMAW ([1]; rate 0.0625 kg/ha): 0.0
- Preemergence herbicidal rating GLXMAW ([1]; rate 0.1250 kg/ha): 5.0
- Preemergence herbicidal rating GLXMAW ([1]; rate 0.2500 kg/ha): 7.0
- Preemergence herbicidal rating ORYSAT (ORYSAT (Rice, Tebonnet); rate 0.0156 kg/ha): 0.0
- Preemergence herbicidal rating ORYSAT (ORYSAT (Rice, Tebonnet); rate 0.0313 kg/ha): 0.0
- Preemergence herbicidal rating ORYSAT (ORYSAT (Rice, Tebonnet); rate 0.0625 kg/ha): 0.0
- Preemergence herbicidal rating ORYSAT (ORYSAT (Rice, Tebonnet); rate 0.1250 kg/ha): 1.0
- Preemergence herbicidal rating ORYSAT (ORYSAT (Rice, Tebonnet); rate 0.2500 kg/ha): 2.0
- Herbicidal rating SAGPY ([2]; 0.0313 kg/ha): 0.0
- Herbicidal rating SAGPY ([2]; 0.0625 kg/ha): 0.0
- Herbicidal rating SAGPY ([2]; 0.1250 kg/ha): 0.0
- Herbicidal rating SAGPY ([2]; 0.2500 kg/ha): 4.0
- Herbicidal rating MOOVA (MOOVA (Monochoria); rate 0.0313 kg/ha): 9.0
- Herbicidal rating MOOVA (MOOVA (Monochoria); rate 0.0625 kg/ha): 9.0
- Herbicidal rating MOOVA (MOOVA (Monochoria); rate 0.1250 kg/ha): 9.0
- Herbicidal rating MOOVA (MOOVA (Monochoria); rate 0.2500 kg/ha): 9.0
- Preemergence herbicidal rating TRZAWR ([3]; rate 0.0156 kg/ha): 0.0
- Preemergence herbicidal rating TRZAWR ([3]; rate 0.0313 kg/ha): 0.0
- Preemergence herbicidal rating TRZAWR ([3]; rate 0.0625 kg/ha): 0.0
- Preemergence herbicidal rating TRZAWR ([3]; rate 0.1250 kg/ha): 1.0
- Preemergence herbicidal rating TRZAWR ([3]; rate 0.2500 kg/ha): 2.0

Compound: CCOC(=O)CN1C(=O)C(CCO)S/C1=N/c1cc(-n2c(=O)cc(C(F)(F)F)n(C)c2=O)c(F)cc1Cl (stereo not shown) [Compound 49, Ethyl 2-{{2-chloro-5-[3,6-dihydro-3-methyl-2,6-dioxo-4-(trifluoromethyl)-1(2H)-pyrimidinyl]-4-fluorophenyl}imino}-5-(hydroxyethyl)-4-oxo-3-thiazolidineacetate]
- Postemergence herbicidal rating CASOB (CASOB (Sicklepod); Rate 0.0313 kg/ha): 3.0
- Postemergence herbicidal rating CASOB (CASOB (Sicklepod); Rate 0.0625 kg/ha): 3.0
- Postemergence herbicidal rating CASOB (CASOB (Sicklepod); rate 0.0156 kg/ha): 2.0
- Preemergence herbicidal rating GLXMAW ([1]; rate 0.0156 kg/ha): 0.0
- Preemergence herbicidal rating GLXMAW ([1]; rate 0.0313 kg/ha): 0.0
- Preemergence herbicidal rating GLXMAW ([1]; rate 0.0625 kg/ha): 2.0
- Preemergence herbicidal rating GLXMAW ([1]; rate 0.1250 kg/ha): 2.0
- Preemergence herbicidal rating GLXMAW ([1]; rate 0.2500 kg/ha): 2.0
- Preemergence herbicidal rating ORYSAT (ORYSAT (Rice, Tebonnet); rate 0.0156 kg/ha): 0.0
- Preemergence herbicidal rating ORYSAT (ORYSAT (Rice, Tebonnet); rate 0.0313 kg/ha): 0.0
- Preemergence herbicidal rating ORYSAT (ORYSAT (Rice, Tebonnet); rate 0.0625 kg/ha): 0.0
- Preemergence herbicidal rating ORYSAT (ORYSAT (Rice, Tebonnet); rate 0.1250 kg/ha): 5.0
- Preemergence herbicidal rating ORYSAT (ORYSAT (Rice, Tebonnet); rate 0.2500 kg/ha): 5.0
- Herbicidal rating SAGPY ([2]; 0.0313 kg/ha): 2.0
- Herbicidal rating SAGPY ([2]; 0.0625 kg/ha): 4.0
- Herbicidal rating SAGPY ([2]; 0.1250 kg/ha): 6.0
- Herbicidal rating SAGPY ([2]; 0.2500 kg/ha): 7.0
- Herbicidal rating MOOVA (MOOVA (Monochoria); rate 0.0313 kg/ha): 9.0
- Herbicidal rating MOOVA (MOOVA (Monochoria); rate 0.0625 kg/ha): 9.0
- Herbicidal rating MOOVA (MOOVA (Monochoria); rate 0.1250 kg/ha): 9.0
- Herbicidal rating MOOVA (MOOVA (Monochoria); rate 0.2500 kg/ha): 9.0
- Preemergence herbicidal rating TRZAWR ([3]; rate 0.0156 kg/ha): 0.0
- Preemergence herbicidal rating TRZAWR ([3]; rate 0.0313 kg/ha): 0.0
- Preemergence herbicidal rating TRZAWR ([3]; rate 0.0625 kg/ha): 0.0
- Preemergence herbicidal rating TRZAWR ([3]; rate 0.1250 kg/ha): 0.0
- Preemergence herbicidal rating TRZAWR ([3]; rate 0.2500 kg/ha): 2.0

Compound: CCOC(=O)CN1C(=O)CS(=O)(=O)C1=Nc1cc(-n2c(=O)cc(C(F)(F)F)n(C)c2=O)c(F)cc1Cl [Compound 46, 2-{{2-Chloro-5-[3,6-dihydro-3-methyl-2,6-dioxo-4-(trifluoromethyl)-1(2H)-pyrimidinyl]-4-fluoro-phenyl}imino}-4-oxo-3-thiazolidineacetic acid, ethyl ester, 1,1-dioxide]
- Postemergence herbicidal rating CASOB (CASOB (Sicklepod); Rate 0.0313 kg/ha): 0.0
- Postemergence herbicidal rating CASOB (CASOB (Sicklepod); Rate 0.0625 kg/ha): 0.0
- Preemergence herbicidal rating GLXMAW ([1]; rate 0.1250 kg/ha): 0.0
- Preemergence herbicidal rating GLXMAW ([1]; rate 0.2500 kg/ha): 0.0
- Preemergence herbicidal rating ORYSAT (ORYSAT (Rice, Tebonnet); rate 0.1250 kg/ha): 0.0
- Preemergence herbicidal rating ORYSAT (ORYSAT (Rice, Tebonnet); rate 0.2500 kg/ha): 0.0
- Herbicidal rating SAGPY ([2]; 0.0313 kg/ha): 0.0
- Herbicidal rating SAGPY ([2]; 0.0625 kg/ha): 0.0
- Herbicidal rating SAGPY ([2]; 0.1250 kg/ha): 0.0
- Herbicidal rating SAGPY ([2]; 0.2500 kg/ha): 3.0
- Herbicidal rating MOOVA (MOOVA (Monochoria); rate 0.0313 kg/ha): 3.0
- Herbicidal rating MOOVA (MOOVA (Monochoria); rate 0.0625 kg/ha): 4.0
- Herbicidal rating MOOVA (MOOVA (Monochoria); rate 0.1250 kg/ha): 6.0
- Herbicidal rating MOOVA (MOOVA (Monochoria); rate 0.2500 kg/ha): 7.0
- Preemergence herbicidal rating TRZAWR ([3]; rate 0.1250 kg/ha): 0.0
- Preemergence herbicidal rating TRZAWR ([3]; rate 0.2500 kg/ha): 0.0

Compound: COC(=O)CCCN1C(=O)CSC1=Nc1cc(-n2c(=O)cc(C(F)(F)F)n(C)c2=O)c(F)cc1Cl [Compound 29, Methyl 2-{{2-chloro-5-[3,6-dihydro-3-methyl-2,6-dioxo-4-(trifluoromethyl)-1(2H)-pyrimidinyl]-4-fluorophenyl}imino}-4-oxo-3-thiazolidinebutyrate]
- Postemergence herbicidal rating CASOB (CASOB (Sicklepod); Rate 0.0158 kg/ha): 0.0
- Postemergence herbicidal rating CASOB (CASOB (Sicklepod); Rate 0.0315 kg/ha): 0.0
- Postemergence herbicidal rating CASOB (CASOB (Sicklepod); Rate 0.0630 kg/ha): 0.0
- Preemergence herbicidal rating GLXMAW ([1]; rate 0.0625 kg/ha): 0.0
- Preemergence herbicidal rating GLXMAW ([1]; rate 0.1250 kg/ha): 0.0
- Preemergence herbicidal rating GLXMAW ([1]; rate 0.2500 kg/ha): 2.0
- Preemergence herbicidal rating ORYSAT (ORYSAT (Rice, Tebonnet); rate 0.0625 kg/ha): 0.0
- Preemergence herbicidal rating ORYSAT (ORYSAT (Rice, Tebonnet); rate 0.1250 kg/ha): 0.0
- Preemergence herbicidal rating ORYSAT (ORYSAT (Rice, Tebonnet); rate 0.2500 kg/ha): 3.0
- Herbicidal rating SAGPY ([2]; 0.0313 kg/ha): 0.0
- Herbicidal rating SAGPY ([2]; 0.0625 kg/ha): 0.0
- Herbicidal rating SAGPY ([2]; 0.1250 kg/ha): 0.0
- Herbicidal rating SAGPY ([2]; 0.2500 kg/ha): 0.0
- Herbicidal rating MOOVA (MOOVA (Monochoria); rate 0.0313 kg/ha): 0.0
- Herbicidal rating MOOVA (MOOVA (Monochoria); rate 0.0625 kg/ha): 0.0
- Herbicidal rating MOOVA (MOOVA (Monochoria); rate 0.1250 kg/ha): 0.0
- Herbicidal rating MOOVA (MOOVA (Monochoria); rate 0.2500 kg/ha): 0.0
- Preemergence herbicidal rating TRZAWR ([3]; rate 0.0625 kg/ha): 0.0
- Preemergence herbicidal rating TRZAWR ([3]; rate 0.1250 kg/ha): 0.0
- Preemergence herbicidal rating TRZAWR ([3]; rate 0.2500 kg/ha): 4.0
